Like-named read-outs stand apart in the source and are kept apart here.
What was measured:
[1] = test system: Leishmania amazonensis promastigotes expressing beta-lactamase; assay: microbe, parasite or virus in culture; type: cell-based
[2] = test system: Trypanosoma cruzi Tulahuen cells expressing beta-galactosidase; assay: T. cruzi intracellular assay (beta-galactosidase, L6 host cells); conditions: for IC50: Trypanosoma cruzi, TULAHUEN; for Selectivity L6/TC-I: Table 3A, estimated from highest L6 dose tested where no L6 IC50
[3] = test system: Trypanosoma brucei brucei 427 cells; assay: T. brucei culture and assay (PrestoBlue); type: cell-based; conditions: for IC50: mean of 2(+) independent trials, read-out: IC50 T. brucei
[4] = test system: rat skeletal muscle cell line, L6; assay: cells; type: cell-based
[5] = test system: Trypanosoma cruzi Tulahuen trypomastigotes; assay: T. cruzi extracellular assay (CellTiter Glo); type: cell-based; conditions: for Selectivity L6/Tc: T. cruzi IC50 from extracellular assay (^b); for Selectivity L6/Tc (T. cruzi value from extracellular assay): L6 IC50 / T. cruzi IC50 (extracellular assay); for IC50: Trypanosoma cruzi, TULAHUEN
[6] = test system: TNFα; assay: Cytokine response by ELISA, TNFα; type: cell-based, human; conditions: Homo sapiens; LPS-stimulated THP-1 cells, 40 μM, mean ± SD; read-out: Average % TNF-α Inhibition
Protocol: Dexamethasone is a synthetic glucocorticoid that suppresses LPS-induced pro-inflammatory cytokine expression and was used as a control (Abraham, Lawrence et al. 2006). Supernatants were collected for human cytokine ELISAs and the manufacturer's protocol was followed to assess the cytokine response. Cells remaining after the supernatant collection were tested for relative viability by Alamar Blue cytotoxicity assay as previously described.

[7] = test system: C. albicans (ATCC strain 90028); assay: Antifungal microdilution broth assay (PrestoBlue), C. albicans; type: cell-based, Candida albicans; conditions: Candida albicans, ATCC90028, Table 4B; C. albicans; 100 μM; value ± spread; read-out: Percent Inhibition (at 100 μM)
In short: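 Inoculum of 1.5×10^3 cells/mL in RPMI-MOPS (0.165 M MOPS, pH 7.0), exposed to aurones for 24 h at 35 °C. Growth read by PrestoBlue (10% final) fluorescence at ex 560/em 590 nm.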

[8] = Leishmania amazonensis, read-out: IC50 L. amaz.
[9] = Table 2, L6 IC50 / L. amazonensis IC50
[10] = read-out: IC50 TC-I, Table 3A, weighted means of two or more independent trials
[11] = Rattus norvegicus, Table 1, read-out: IC50 Toxicity (L6)
[12] = Rattus norvegicus, Table 3A, weighted means of two or more independent trials, read-out: IC50 L6
[13] = Table 2, L6 mammalian cells, read-out: IC50 Toxicity (L6)
[14] = Table 1, ^b extracellular T. cruzi assay, read-out: IC50 T. cruzi
[15] = Table 2, extracellular assay, read-out: IC50 T. cruzi (footnote b: Extracellular T. cruzi assay)
[16] = Leishmania amazonensis, read-out: IC50 L. amaz. (footnote c: value obtained from one trial)
[17] = Table 2, L6 IC50 / T. brucei IC50
[18] = read-out: IC50 T. cruzi, Table 1, intracellular assay, mean of 2(+) trials (^c one trial)
[19] = read-out: IC50 T. cruzi, Table 2, intracellular assay, mean of 2(+) independent trials

| Structure (SMILES) | IC50 [1, 8] | Selectivity L6/La ([1]; Table 1) | Selectivity L6/La [1, 9] | IC50 ([3]; Table 2) | IC50 ([3]; Trypanosoma brucei, Table 1) | IC50 [4, 11] | IC50 [4, 13] | IC50 [5, 14] | IC50 [5, 15] | melting point | Selectivity L6/Tb ([3]; Table 1) | other results |
| --- | --- | --- | --- | --- | --- | --- | --- | --- | --- | --- | --- | --- |
| O=C1/C(=C/c2cc(Br)cc(Br)c2O)Oc2ccccc21 [Aurone 3012, (Z)-2-(3,5-dibromo-2-hydroxybenzylidene)benzofuran-3(2H)-one] | 1.21 µM | >82.64 | >82.64 | > 50 µM | > 50 µM | > 100 µM | > 100 µM | 40.1 µM | 40.1 µM |  |  | IC50 [2, 10]: > 50 µM; IC50 [4, 12]: > 100 µM; Selectivity L6/Tc ([5]; Table 1): >2.49; Selectivity L6/Tc (T. cruzi value from extracellular assay) ([5]; Table 2): >2.49 |
| Cc1ccc2c(c1)C(=O)/C(=C/c1ccc(O)cc1)O2 [Aurone 4005, (Z)-2-(4-hydroxybenzylidene)-5-methylbenzofuran-3(2H)-one] | 3.58 µM | >27.93 | >27.93 | > 50 µM | > 50 µM | > 100 µM | > 100 µM | > 50 µM | > 50 µM | 228 to 231 °C |  |  |
| COc1cc(/C=C2\Oc3ccccc3C2=O)ccc1O [Aurone 7, (Z)-2-(4-hydroxy-3-methoxybenzylidene)benzofuran-3(2H)-one] |  |  |  |  |  |  |  |  |  |  |  | inhibition at 40 µM [6]: 10.4 ± 4.7% |
| O=C1/C(=C/c2ccc(CO)o2)Sc2ccccc21 [TA2] | < 1 µM |  |  |  | 11.4 µM | > 200 µM |  | > 50 µM | > 50 µM |  |  |  |
| CC(=O)N1/C(=C\c2ccc(CO)o2)C(=O)c2ccccc21 [AA4A] | < 1 µM |  |  |  | 34.7 µM | 87 µM |  | > 50 µM | > 50 µM |  |  | IC50 [1, 16]: < 1 µM |
| N#Cc1ccc(/C=C2\Oc3ccc(Br)cc3C2=O)cc1 [Aurone 6003, (Z)-4-((5-bromo-3-oxobenzofuran-2(3H)-ylidene)methyl)benzonitrile] | 1.22 µM | >81.97 | >81.97 |  | 17.1 µM | > 100 µM | > 100 µM | > 50 µM | > 50 µM |  | >5.85 | Selectivity L6/Tb [3, 17]: >5.85 |
| O=C1/C(=C/c2ccc(C(F)(F)F)cc2)Oc2ccc(Br)cc21 [Aurone 6001, (Z)-5-bromo-2-(4-(trifluoromethyl)benzylidene)benzofuran-3(2H)-one] | 7.29 µM | >13.72 | >13.72 | > 50 µM | > 50 µM | > 100 µM | > 100 µM | > 50 µM | > 50 µM | 120 to 125 °C |  |  |
| O=C1/C(=C/c2ccccc2O)Oc2ccccc21 [Aurone 9088, (Z)-2-(2-hydroxybenzylidene)benzofuran-3(2H)-one] | 9.54 µM |  |  |  | > 50 µM | > 100 µM |  |  |  | 215 to 216 °C |  | inhibition at 100 µM [7]: 1 ± 1.1%; IC50 [2, 18]: 18.4 µM; IC50 [2, 19]: 18.4 µM |
| O=C1/C(=C/c2ccccc2O)Oc2ccccc21 [Aurone 4, (Z)-2-(2-hydroxybenzylidene)benzofuran-3(2H)-one] |  |  |  |  |  |  |  |  |  |  |  | inhibition at 40 µM [6]: 15.4 ± 5.3% |
| Cc1ccc2c(c1)C(=O)/C(=C/c1ccc(Br)cc1)O2 [Aurone 4002, (Z)-2-(4-bromobenzylidene)-5-methylbenzofuran-3(2H)-one] | 19.7 µM | >5.07 |  |  | 42.8 µM | > 100 µM |  | > 50 µM |  | 171 to 175 °C | >2.34 |  |
| Cc1ccc2c(c1)C(=O)/C(=C/c1ccc(C#N)cc1)O2 [Aurone 4001, (Z)-4-((5-methyl-3-oxobenzofuran-2(3H)-ylidene)methyl)benzonitrile] | 38.4 µM | 1.98 | 1.98 |  | 2.66 µM | 76.2 µM |  | 31.7 µM | 31.7 µM | 148 to 152 °C | 28.66 | Selectivity L6/Tb [3, 17]: 28.66; Selectivity L6/Tc ([5]; Table 1): 2.40; Selectivity L6/Tc (T. cruzi value from extracellular assay) ([5]; Table 2): 2.40 |
| N=C1/C(=C/c2ccccn2)Oc2ccc(F)cc21 [Aurone 9312, (Z)-5-fluoro-2-(pyridin-2-ylmethylene)benzofuran-3(2H)-imine] | < 1 µM | >200 | >200 | > 50 µM | > 50 µM | > 200 µM | > 200 µM | > 50 µM | > 50 µM |  |  | IC50 ([1]; read-out: IC50 L. amaz., Table 2, mean of 2(+) independent trials): < 1 µM |
| COc1cc(OC)c2c(c1)O/C(=C\c1ccc(C#N)cc1)C2=O [Aurone 7002, (Z)-4-((4,6-dimethoxy-3-oxobenzofuran-2(3H)-ylidene)methyl)benonitrile] | 2.08 µM | 39.68 | 39.68 | > 50 µM | > 50 µM | 82.5 µM |  | > 50 µM | > 50 µM | 220 to 223 °C |  | IC50 [1, 16]: 2.08 µM |
| COc1ccc(/C=C2\Oc3ccccc3C2=O)cc1O [Aurone 9, (Z)-2-(3-hydroxy-4-methoxybenzylidene)benzofuran-3(2H)-one] |  |  |  |  |  |  |  |  |  |  |  | inhibition at 40 µM [6]: 14.9 ± 7.2% |
| Cc1ccc2c(c1)C(=O)/C(=C/c1ccccc1C(F)(F)F)O2 [Aurone 4006, (Z)-5-methyl-2-(2-(trifluoromethyl)benzylidene)benzofuran-3(2H)-one] | 9.7 µM | 7.52 | 7.52 |  | 30.2 µM | 72.9 µM |  | 15.8 µM | 15.8 µM | 121 to 124 °C | 2.41 | Selectivity L6/Tb [3, 17]: 2.41; Selectivity L6/Tc ([5]; Table 1): 4.62; Selectivity L6/Tc (T. cruzi value from extracellular assay) ([5]; Table 2): 4.62 |
| O=C1/C(=C/c2ccc(Br)cc2)Oc2ccc(Br)cc21 [Aurone 6002, (Z)-5-bromo-2-(4-bromobenzylidene)benzofuran-3(2H)-one] | 11 µM | >9.07 |  |  | 42 µM | > 100 µM |  | > 50 µM |  | 126 to 130 °C | >2.38 |  |
| COc1ccc(/C=C2\Oc3ccc(C)cc3C2=O)c(OC)c1OC [Aurone 4004, (Z)-5-methyl-2-(2,3,4-trimethoxybenzylidene)benzofuran-3(2H)-one] | 4.04 µM | 10.86 | 10.86 |  | 19.7 µM | 43.9 µM |  | > 50 µM | > 50 µM | 74 to 78 °C | 2.23 | Selectivity L6/Tb [3, 17]: 2.23 |
| Cc1cccc(/C=C2\Oc3ccccc3C2=O)c1 [Aurone 9064, (Z)-2-(3-methylbenzylidene)benzofuran-3(2H)-one] | 4.4 µM |  |  |  | 32.6 µM | 79.9 µM |  | 18.4 µM | 18.4 µM | 74 to 75 °C |  |  |
| O=C1/C(=C/c2cccc(F)c2)Oc2ccccc21 [Aurone 9024, (Z)-2-(3-fluorobenzylidene)benzofuran-3(2H)-one] | 20.1 µM | >4.98 | >4.98 | > 50 µM | > 50 µM | > 100 µM | > 100 µM |  |  | 111 to 113 °C |  | Selectivity L6/TC-I [2]: 14.99; IC50 [2, 18]: 6.67 µM; IC50 [2, 19]: 6.67 µM; IC50 [2, 10]: 6.67 µM; IC50 [4, 12]: > 100 µM |
| O=C1/C(=C/c2ccccc2Br)Oc2ccccc21 [Aurone 9006, (Z)-2-(2-bromobenzylidene)benzofuran-3(2H)-one] | < 1 µM | >226.08 | >226.08 |  | 28.3 µM | 226 µM |  |  |  | 134 to 140 °C | 7.98 | IC50 [1, 16]: < 1 µM; Selectivity L6/Tc ([2]; Table 1, intracellular T. cruzi IC50): 10.61; Selectivity L6/Tc ([2]; Table 2, L6 IC50 / T. cruzi IC50 (intracellular assay)): 10.61; Selectivity L6/TC-I [2]: 10.61; IC50 [2, 18]: 21.3 µM; IC50 [2, 19]: 21.3 µM; IC50 [2, 10]: 21.3 µM; Selectivity L6/Tb [3, 17]: 7.98; Selectivity L6/Tb ([3]; Table 3A, estimated from highest L6 dose tested where no L6 IC50): 7.98; IC50 [4, 12]: 226 µM |

Source: patent US20200399238A1, “THERAPEUTIC AURONES” (MIDDLE TENNESSEE STATE UNIVERSITY, priority 2016, published 2020)
